Where “and” joins values, the source holds several entries; their conditions need not be identical. Identical values can stand only once. Counter-ions that a name gives are not always drawn.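 Method: 48-hour compound exposure of cells in 96-well plates, five concentrations, linear interpolation of endpoints. Abbreviation: GI50, concentration required for 50% inhibition of growth.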 Calls of active or inactive are those of the source. Cut-off read from the data, not from the text of the source: active = GI50 up to about 1.1 µM and inactive = higher.
Experiments:
Experiment in all cases: NCI-60 cell line screen, 48 h
[1] = tested on: SK-MEL-2
[2] = tested on: SN12C
[3] = tested on: MDA-MB-231
[4] = tested on: RXF 393
[5] = tested on: UO-31
[6] = tested on: EKVX
[7] = tested on: LXFL 529
[8] = tested on: ACHN
[9] = tested on: OVCAR-4
[10] = tested on: BT-549
[11] = tested on: CCRF-CEM
[12] = tested on: Hs-578T
[13] = tested on: MDA-N
[14] = tested on: KM12
[15] = tested on: HCT-116
[16] = tested on: IGROV-1
[17] = tested on: CAKI-1
[18] = tested on: SF-539
[19] = tested on: SNB-75

Measured: GI50

CN(C)CCCN1c2ccccc2Sc2ccc(C(F)(F)F)cc21 [TRIFLUPROMAZINE HYDROCHLORIDE]
inactive: [1] 16 µM | [2] 16 µM and 17.3 µM | [3] 12.9 µM | [4] 13 µM and 16 µM | [5] 15.5 µM and 14.3 µM | [6] 17.6 µM and 15.7 µM | [7] 60 µM | [8] 14.9 µM and 15.4 µM | [9] 14.8 µM | [10] 12.8 µM | [11] 20.3 µM and 16.1 µM | [12] 14.1 µM | [13] 13.4 µM | [14] 17.2 µM and 15.1 µM | [15] 14.2 µM and 14.4 µM | [16] 15.9 µM and 15.6 µM | [17] 11.8 µM | [18] 15.2 µM and 19.1 µM | [19] 12.1 µM and 12.2 µM
